The record followed here is patent US6525066B2, “4-oxoquinolizine antimicrobial having 2-pyridone skeleton as partial structure” (SATO Pharmaceutical Co., Ltd., priority 1999, dated 2003).

Converted amounts (≈) assume the structure as drawn.

Holding throughout (assay type): cell-based
In assay [1] the test system is Streptococcus Pneumoniae IID553. In words: In vitro antibacterial activity, agar plate dilution method (MIC). The following applies: for MIC: read-out: Antibacterial spectrum MIC. How it is done: (§1) The in vitro antibacterial activity of the present compound (Example 2, 4, 6, 8, 10, 12, 14, 16 and 18) was tested by the standard method of Japan Chemical Therapy Institute using agar plate dilution method which is described in CHEMOTHERAPY Vol.29, […], 1981. For an anaerobic bacteria, it was tested by the method described in CHEMOTHERAPY Vol. 27, 559-590, 1979. The minimum concentration at which the growth of a bacteria could be inhibited by the present compound was decided as MIC (μg/ml).

Assay [2] relates to Escherichia coli IFO 12734. The assay is described as above. To be noted: for MIC: IFO12734, read-out: Antibacterial spectrum MIC. How it is done:
as §1

Assay [3] relates to Streptococcus aureus Clin-211. The description is as above. To be noted: for MIC: CLIN211, read-out: Antibacterial spectrum MIC. How it is done: as §1
The subject of assay [4] is Streptococcus aureus JCM2874. The assay is described as above. To be noted: for MIC: read-out: Antibacterial spectrum MIC. How it is done:
as §1

In assay [5] the test system is Pseudomonas aeruginosa CSJ 1853. The description is as above. The following applies: for MIC: CSJ1853, read-out: Antibacterial spectrum MIC. How it is done:
as §1

Assay [6] relates to Bacteroides fragilis GAI0675. In words: In vitro antibacterial activity against anaerobic bacteria (MIC). The following applies: Bacteroides fragilis GAI0675 (Table 2: Bacteroides GMI0675), anaerobic bacteria method; for MIC: read-out: Antibacterial spectrum MIC. How it is done:
as §1

On to `CC1NCc2cc(-c3ccn4c(=O)c(C(=O)O)cc(C5CC5)c4c3OC(F)F)ccc21` (stereo not drawn) [Example 10, 1-cyclopropyl-9-difluoromethoxy-8-((+)-1-methylisoindoline-5-yl)-4-oxo-4H-quinolizine-3-carboxylic acid], for which the MIC (commonly the smallest concentration in the dilution series that meets the test's criterion for growth inhibition) in assay [1] turned out to be 0.25 µg/mL (≈ 0.586 µM); in assay [2], 0.125 µg/mL (≈ 0.293 µM); in assay [3], 1 µg/mL (≈ 2.35 µM); in assay [4], 0.063 µg/mL (≈ 0.148 µM); in assay [5], 4 µg/mL (≈ 9.38 µM); in assay [6], 0.5 µg/mL (≈ 1.17 µM).
On to `Cc1c(-c2ccc3c(c2)CNC3)ccn2c(=O)c(C(=O)O)cc(C3CC3)c12` [Example 6, 1-cyclopropyl-9-methyl-8-(isoindoline-5-yl)-4-oxo-4H-quinolizine-3-carboxylic acid], for which the MIC worked out at 0.031 µg/mL (≈ 0.086 µM) in assay [1]; 0.016 µg/mL (≈ 0.0444 µM) in assay [2]; 0.125 µg/mL (≈ 0.347 µM) in assay [3]; 0.008 µg/mL (≈ 0.0222 µM) in assay [4]; 0.25 µg/mL (≈ 0.694 µM) in assay [5]; 0.031 µg/mL (≈ 0.086 µM) in assay [6].
For the compound `COc1cc(-c2ccn3c(=O)c(C(=O)O)cc(C4CC4)c3c2C)cc2c1CNC2` [Example 18, 1-cyclopropyl-9-methyl-8-(4-methoxy-isoindoline-6-yl)-4-oxo-4H-quinolizine-3-carboxylic acid], the MIC in assay [1] worked out at 0.125 µg/mL (≈ 0.32 µM); in assay [2], 0.125 µg/mL (≈ 0.32 µM); in assay [3], 0.5 µg/mL (≈ 1.28 µM); in assay [4], 0.031 µg/mL (≈ 0.0794 µM); in assay [5], 2 µg/mL (≈ 5.12 µM); in assay [6], 0.063 µg/mL (≈ 0.161 µM).
Take `C[C@H]1COc2c(N3CCN(C)CC3)c(F)cc3c(=O)c(C(=O)O)cn1c23` [LVFX, levofloxacin, reference compound]: the MIC is 1 µg/mL (≈ 2.77 µM) in assay [1]; 0.063 µg/mL (≈ 0.174 µM) in assay [2]; 4 µg/mL (≈ 11.1 µM) in assay [3]; 0.25 µg/mL (≈ 0.692 µM) in assay [4]; 0.5 µg/mL (≈ 1.38 µM) in assay [5]; 0.5 µg/mL (≈ 1.38 µM) in assay [6].
`Cc1c(-c2cc(F)c3c(c2)CNC3)ccn2c(=O)c(C(=O)O)cc(C3CC3)c12` [Example 14, 1-cyclopropyl-8-(4-fluoroisoindoline-6-yl)-9-methyl-4-oxo-4H-quinolizine-3-carboxylic acid]: the MIC came out at 0.031 µg/mL (≈ 0.0819 µM) in assay [1]; 0.031 µg/mL (≈ 0.0819 µM) in assay [2]; 0.125 µg/mL (≈ 0.33 µM) in assay [3]; 0.008 µg/mL (≈ 0.0211 µM) in assay [4]; 0.5 µg/mL (≈ 1.32 µM) in assay [5]; 0.016 µg/mL (≈ 0.0423 µM) in assay [6].
Regarding `COc1cc(-c2ccn3c(=O)c(C(=O)O)cc(C4CC4)c3c2OC)cc2c1CNC2` [Example 16, 1-cyclopropyl-9-methoxy-8-(4-methoxyisoindoline-6-yl)-4-oxo-4H-quinolizine-3-carboxylic acid], the MIC in assay [1] came out at 0.5 µg/mL (≈ 1.23 µM); in assay [2] it was 0.5 µg/mL (≈ 1.23 µM); in assay [3] it was 2 µg/mL (≈ 4.92 µM); in assay [4] it was 0.125 µg/mL (≈ 0.308 µM); in assay [5], 8 µg/mL (≈ 19.7 µM); in assay [6], 0.25 µg/mL (≈ 0.615 µM).
For `O=C(O)c1cc(C2CC2)c2c(OC(F)F)c(-c3ccc4c(c3)CNC4)ccn2c1=O` [Example 12, 1-cyclopropyl-9-difloromethoxy-8-(isoindoline-5-yl)-4-oxo-4H-quinolizine-3-carboxylic acid], the “Antibacterial spectrum MIC” value was 0.25 µg/mL in assay [1]; 0.125 µg/mL in assay [2]; 1 µg/mL in assay [3]; 0.031 µg/mL in assay [4]; 4 µg/mL in assay [5]; 0.25 µg/mL in assay [6].
As for `COc1c(-c2ccc3c(c2)CNC3C)ccn2c(=O)c(C(=O)O)cc(C3CC3)c12` (stereo not drawn) [Example 4, 1-cyclopropyl-9-methoxy-8-(1-methylisoindoline-5-yl)-4-oxo-4H-quinolizine-3-carboxylic acid], the MIC in assay [1] amounted to 0.25 µg/mL (≈ 0.64 µM); in assay [2], 0.125 µg/mL (≈ 0.32 µM); in assay [3], 1 µg/mL (≈ 2.56 µM); in assay [4] it was 0.063 µg/mL (≈ 0.161 µM); in assay [5], 1 µg/mL (≈ 2.56 µM); in assay [6] it was 0.25 µg/mL (≈ 0.64 µM).
As for `Cc1c(-c2ccc3c(c2)CNC3C)ccn2c(=O)c(C(=O)O)cc(C3CC3)c12` (stereo not drawn) [Example 2, 1-cyclopropyl-9-methyl-8-(1-methylisoindoline-5-yl)-4-oxo-4H-quinolizine-3-carboxylic acid], the MIC is 0.063 µg/mL (≈ 0.168 µM) in assay [1]; 0.031 µg/mL (≈ 0.0828 µM) in assay [2]; 0.25 µg/mL (≈ 0.668 µM) in assay [3]; 0.008 µg/mL (≈ 0.0214 µM) in assay [4]; 0.25 µg/mL (≈ 0.668 µM) in assay [5]; 0.031 µg/mL (≈ 0.0828 µM) in assay [6].
Regarding `COc1c(-c2ccc3c(c2)CNC3)ccn2c(=O)c(C(=O)O)cc(C3CC3)c12` [Example 8, 1-cyclopropyl-9-methoxy-8-(isoindoline-5-yl)-4-oxo-4H-quinolizine-3-carboxylic acid], the MIC in assay [1] was found to be 0.25 µg/mL (≈ 0.664 µM); in assay [2], 0.063 µg/mL (≈ 0.167 µM); in assay [3], 0.5 µg/mL (≈ 1.33 µM); in assay [4], 0.063 µg/mL (≈ 0.167 µM); in assay [5], 1 µg/mL (≈ 2.66 µM); in assay [6], 0.25 µg/mL (≈ 0.664 µM).
